Calls of active or inactive are those of the source.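 How the source made its calls: active means compounds giving half or more protection of infected cells from virus-caused growth loss, again on retest; inactive means the rest.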
System: CEM cells HIV-1 protection, formazan growth assay
Experiment: NCI AIDS Antiviral Assay
Details: for IC50: measured here: growth of uninfected CEM cells
Outline: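 Human CEM cells, uninfected and HIV-1-infected, received five drug concentrations, and growth was read by soluble formazan assay. Compounds giving at least 50% protection were retested; reproducible 100% protection defined confirmed active.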

SMILES | EC50 [µM] | IC50 [µM] | outcome
C#CCN(Cc1ccc2nc(-c3ccccc3)c(Cl)nc2c1)c1cc(OC)c(OC)c(OC)c1 | > 7.94 | > 7.94 | –
COc1ccc(OC)c(NC(=O)C(=O)CC(=O)c2sc(-n3nc(-c4ccccc4)cc3-c3ccccc3)nc2C)c1 | > 437 | 363 | –
CC1(C)OCC2(CO1)CSCCCSCC1(COC(C)(C)OC1)CSCCCSC2 | > 10.5 | > 10.5 | –
O=C(NC(=O)c1cn(CCN2CCNCC2)c(=O)[nH]c1=O)OCc1ccccc1 | – | – | inactive
N=c1nnc(=O)c2c(s1)-n1ncc(C(=O)O)c1NN2 | > 81.3 | > 81.3 | –
COc1cnn(-c2ccccc2)c(=O)c1SCc1ccc(Cl)cc1 | > 52.5 | 30.9 | –
Cc1ccc(/C=C/C(=O)C(C)(C)CN2CCCCC2)cc1 | > 27.5 | > 27.5 | –
COc1cccc(NC(=O)CSc2nnc(-c3ccc(NC(C)=O)cc3)o2)c1 | > 64.6 | > 64.6 | –
CCOC(=O)[C@@H]1ON2O[C@@H](OC3CCCC3(c3ccccc3)c3ccccc3)C[C@H]3OC(=O)[C@@H]1C32 (some centres not stated) | > 200 | 34.7 | –
O=C1c2ccccc2C(=O)c2c1ccc1c3ccccc3n(-c3ccccc3)c21 | > 50.1 | 0.871 | –
COC(=O)c1cc(C(=CCC(=O)O)c2cc(Cl)c(OC)c(C(=O)OC)c2)cc(Cl)c1OC | > 200 | 97.7 | –
Ic1ccccc1SSc1ccccc1I | > 200 | 8.71 | –
COc1cc2c(cc1OC)C13CCN4CC5=CCOC(CC(=O)O)C(C5CC41)C3N2 (configuration not stated) | 25.7 | 151 | –
O=C(c1ccccc1)c1c(O)c2ccccc2oc1=O | – | – | inactive
CCOC(=O)/C=C1\C(=O)N(Cc2ccccc2)c2ccccc21 | > 200 | 1 | –
COc1ccc2nc(N/N=C/c3sccc3C)cc(C)c2c1 | > 200 | 17.4 | –
CCOP(=Nc1ccc(N(C)C)cc1)(OCC)OCC | > 200 | > 200 | –
CCOC(=O)NN(CCOS(=O)(=O)c1ccc(C)cc1)CCOS(=O)(=O)c1ccc(C)cc1 | > 200 | 120 | –
COc1ccc2cc3[n+](cc2c1OC)CCc1cc(O)c(O)cc1-3 | – | – | inactive
O=c1[nH]c2ccccc2nc1/C=C/n1c(=S)[nH]c2ccccc21 | > 200 | > 200 | –
C=C=CC(C)(O)c1ccc(-c2ccccc2)cc1 (configuration not stated) | > 191 | 45.7 | –
CC(C)(C)c1cc(CCC(=O)Nc2ccc(Cl)cc2)nc(NC#N)n1 | > 692 | > 692 | –
CN(C)CCOc1cccc2c1C(=O)c1ccccc1C2=O | – | – | inactive

SMILES | EC50 [µM] | IC50 [µM] | outcome
CC12CP(=O)(c3ccccc3)CC1c1ccccc1C2c1ccccc1 (configuration not stated) | > 200 | 31.6 | –
CN=C(NC)NCc1ccccc1 | > 200 | 178 | –
COC(=O)c1cc2c(nc1C)-c1ccccc1OS2(=O)=O | – | – | inactive
CC1=NN(c2ccccc2)C(=O)C1N=Nc1ccc(S(=O)(=O)Nc2nccc(C)n2)cc1 (configuration not stated) | – | – | inactive
OCC(O)C(OC1OC(CO)C(O)C(O)C1O)c1nn(-c2ccc(F)cc2)c2nc3cc(Cl)c(Cl)cc3cc12 (configuration not stated) | – | – | inactive
c1ccc2c3nnc(c2c1)SCCSCCCSCCS3 | > 200 | > 200 | –
O=C(NC(=S)Nc1ccc(Cl)c(Cl)c1)c1cccc([N+](=O)[O-])c1 | > 200 | 17 | –
CC1CCCC(C)C(Sc2ccccc2)=C1Sc1ccccc1 (configuration not stated) | – | – | inactive
CN1CCC2(CC1)C(C#N)C(=O)NC(=O)C2C#N (configuration not stated) | > 339 | > 339 | –
CCCC(N)S(=O)(=O)O (configuration not stated) | > 200 | > 200 | –
Cc1cc(O)c(C=NC(=S)c2ccncc2)c(=O)o1 | > 200 | > 200 | –
Cc1cc(S(=O)(=O)Nc2nc(N)nc(N(C)C)n2)c(S)cc1Cl | > 182 | 166 | –
O=S(=O)(Nc1ncccn1)c1ccc(N=NSC2=NC=NC3=NC=NC32)cc1 (configuration not stated) | > 200 | 5.25 | –
CCN(CC)CCn1c2cc3c(cc2c(=O)c2cccnc21)OCCO3 | > 200 | 6.61 | –
CN1C2CCC1/C(=C/c1cccc3c1OCO3)C(=O)/C2=C\c1cccc2c1OCO2 | > 6.76 | > 6.76 | –
O=C(c1ccccc1)c1ccc(C(=O)c2ccccc2)cc1 | > 5.01 | > 5.01 | –
Nc1nnc(CCC(=O)Nc2cc(Cl)ccc2Cl)n1N | > 8.71 | > 8.71 | –
Clc1nc(Nc2nc3ccccc3[nH]2)nc(Cl)c1-c1ccccc1 | – | – | inactive
CCN(CC)CC(=O)Nc1cc(Cl)ccc1C | > 200 | > 200 | –
COC(=O)N(C)C(C#N)CCc1ccccc1 (configuration not stated) | > 15.5 | > 15.5 | –
Cc1ccc2ccc3c(-c4ccccc4)cc(C)nc3c2n1 | > 20 | 3.31 | –
CC(C)(C)/C(O)=C\c1nc2cc(C(F)(F)F)ccc2[nH]c1=O | > 200 | > 200 | –
CC1(C)N/C(=C\C=O)C(C)(C)N1O | > 200 | > 200 | –

SMILES | EC50 [µM] | IC50 [µM] | outcome
CCCCN1C(=N)C2(C#N)C(CCC)C(CC)C1C2(C#N)C#N (configuration not stated) | > 200 | 158 | –
O=C(N[C@@H](c1ccccc1)[C@@H](O)C(=O)OCc1ccc([N+](=O)[O-])cc1)c1ccccc1 | > 200 | 151 | –
O=C(C/C(=N\NC(=O)C[n+]1ccccc1)C(=O)Nc1nc2ccc([N+](=O)[O-])cc2s1)CC(c1ccccc1)c1c(O)c2ccccc2oc1=O (configuration not stated) | > 2.75 | > 2.75 | –
Nc1ncc(/C=N/O)c(NCC2(CO)CC(CCc3ccccc3)C2)n1 (configuration not stated) | > 2 | 0.603 | –
Cc1ccc(S(=O)(=O)NCCCSCCSCCCN)cc1 | > 257 | 41.7 | –
COc1ccc(C2CC(=O)CC(c3ccc(OC)cc3)C23C(=O)NC(=S)NC3=O)cc1 (configuration not stated) | > 100 | > 100 | –
O=C(O)CN(c1ccccc1)S(=O)(=O)c1ccc(Cl)cc1 | – | – | inactive
C=CC[C@H]1[C@@H](O[Si](C)(C)C(C)(C)C)[C@H](n2ccc(=O)[nH]c2=O)O[C@@H]1CO[Si](C)(C)C(C)(C)C | > 200 | 10 | –
CO/C=C/CCCO | > 2140 | > 2140 | –
Cc1ccc(S(=O)(=O)OC[C@@H]2CO2)cc1 | > 115 | 14.1 | –
CCCCCC=C(c1cc(Br)cc(C(=O)OC)c1OC)c1cc(Br)cc(C(=O)OC)c1OC | 42.7 | 43.7 | –
CC1=CN(c2ccccc2)S2=C1c1sc3c(c1N2c1ccc(Br)cc1)CCCC3 (configuration not stated) | > 200 | > 200 | –
CC(C)N(CN1C(=O)N/C(=C/c2cccc(/C=C3/NC(=O)N(CN(C(C)C)C(C)C)C3=O)c2)C1=O)C(C)C | > 501 | 75.9 | –
NC1=NN(c2ccccc2)C(=O)/C1=C\n1c(=S)[nH]c2ccccc21 | > 200 | > 200 | –
CC(=O)Nc1nnc2c3ccccc3n(C(C)=O)c2n1 | > 200 | 3.55 | –
COC(=O)C(Cc1nc2ccc(Cl)cc2[nH]c1=O)C(=O)C(=O)Nc1cc(C)ccc1C (configuration not stated) | > 214 | > 214 | –
COC1=C(Br)[C@H](O)[C@@]2(C=C1Br)CC(C(=O)NCCCOc1c(Br)cc(C(O)CNC(C)=O)cc1Br)=NO2 (some centres not stated) | > 10 | 6.61 | –
COCC1C(=O)c2cc3c(cc2C12C=CC1(C=C2)OCCO1)OCO3 (configuration not stated) | > 275 | 11 | –
Oc1c(Cl)cc(Cl)c2cccnc12 | – | – | inactive
C[C@@H]1C[C@H](C)S(=O)[C@H](C)S1 (some centres not stated) | > 1410 | > 1410 | –
O=[N+]([O-])c1ccc(C2=NOC(c3ccccc3)N2C23CC4CC(CC(C4)C2)C3)cc1 (configuration not stated) | > 200 | 107 | –
C/C(=C\CCC1=CC(=O)OC1)CCC1C2C(=O)CC(C)[C@@]3(C)CC[C@]1(C)[C@@]23C (some centres not stated) | > 200 | 34.7 | –
OCC(O)C1[O][Sb][O]C1C(O)CO (configuration not stated) | > 200 | > 200 | –

SMILES | EC50 [µM] | IC50 [µM] | outcome
COC(=O)CCC(=O)NC1C2CC3CC(C2)CC1C3 (configuration not stated) | > 135 | > 135 | –
O=P1(O)c2ccccc2Oc2ccccc21 | > 200 | > 200 | –
O=C(COc1ccccc1Cl)N1N=C(c2ccc(Cl)cc2)CC1(O)c1ccccc1 (configuration not stated) | > 4.57 | > 4.57 | –
COC(=O)C[P+](c1ccccc1)(c1ccccc1)c1ccccc1 | > 200 | > 200 | –
N#CC(C#N)=Cc1ccc(Cl)cc1 | > 72.4 | 66.1 | –
c1ccc2c(c1)nnn2C1CCCCO1 (configuration not stated) | > 200 | > 200 | –
O=C(CCc1cc(-c2ccccc2)nc(=S)[nH]1)N(Cc1ccccc1)Cc1ccccc1 | – | – | inactive
Cc1nc(-c2ccccc2)c(C)n2c1nc1ccccc12 | > 200 | 28.8 | –
CCCCCC(Nc1nncs1)Nc1nncs1 | > 200 | > 200 | –
C=C1C(=O)O[C@H]2[C@H]3O[C@@H](C[C@@H]12)[C@@]1(C)CC[C@H](O1)[C@H](C)CCC[C@H]3C | > 20 | 1.07 | –
Cc1nc(C(N)=S)sc1C(=O)C/C(=N/N)C(=O)Nc1ccc(Cl)cc1 | > 240 | > 240 | –
Clc1ccc(C(=C=C(c2ccccc2)c2ccccc2)c2ccc(Cl)cc2)cc1 | > 22.9 | > 22.9 | –
O=C1C(c2cnc3ccccc3n2)=C(O)c2ccccc21 | > 2.63 | > 2.63 | –
O=C(c1ccccc1)c1cc(Cl)ccc1NCn1nnc2ccccc21 | > 200 | 35.5 | –
Nc1cn2ncnc2c(=O)[nH]1 | > 174 | > 174 | –
O=C(O)/C=C/c1ccc[c]([Sb](=[O])([OH])[OH])c1 | 2.82 | > 200 | –
CC1(C)CC[C@]2(C(=O)O)C(O)CC3(C)C(=CCC4[C@@]5(C)CC[C@H](OS(=O)(=O)O)C(C)(C)C5CC[C@]43C)[C@@H]2C1 (some centres not stated) | > 219 | > 219 | –
NS(=O)(=O)c1c(O)c2ccccc2oc1=O | – | – | inactive
CC(C#N)NCc1ccccc1 (configuration not stated) | – | – | inactive
NCC1(N2CCOCC2)C2CCCC21CO (configuration not stated) | > 1100 | > 1100 | –
BrC(Br)=C1C(=C(Br)Br)C(Br)C1Br (configuration not stated) | – | – | inactive
CCC(C)(C)C1CCC2c3c([nH]c4ccccc34)C3C(=O)N(c4ccc(OC)cc4)C(=O)C3C2C1 (configuration not stated) | > 200 | 7.76 | –
